Source: patent US3956312A, “Indazole-3-carboxylic acid hydrazides and a process for the preparation thereof” (Egyt Gyogyszervegyeszeti Gyar, priority 1973, dated 1976)
Counter-ions that a name gives are not always drawn. Like-named read-outs stand apart in the source and are kept apart here.

How the values were obtained:
[1] = tested on: gastric acid secretion; experiment: inhibition of gastric acid secretion, Shay's method; type: in vivo, Wistar rats; settings: 5 hours
Procedure: The animals were operated according to Shay's method, and the substance to be tested was administered intraperitoneally. After 5 hours the animals were sacrified, and the volume of gastric juice, the amount of free hydrochloric acid, and the total acidity were determined.

[2] = acute toxicity (LD50), intraperitoneal, 48 hours observation; settings: mouse, in vivo, ip, read-out: Toxicity LD5
Procedure: (§1) The spasmolytic effect was tested under in vivo conditions on white mice, by the carbon suspension method of Stickney. The active agents were administered intraperitoneally, and the total length of the small intestines as well as the length of the intestines filled with carbon were measured. […] The ED50 values were calculated according to the LitchfieldWilcoxon method from the thus-transformed values. In order to evaluate the safety margin of the active agents, the acute LD50 values were also determined on white mice in intraperitoneal administration. The observation periods in the toxicity tests were 48 hours, and the calculation was performed according to the LitchfieldWilcoxon method, also taking into consideration the perished animals.

[3] = tested on: small intestines; experiment: spasmolytic effect in vivo, carbon suspension method of Stickney; settings: Mus musculus, ip; white mice, intraperitoneal, Litchfield-Wilcoxon
Procedure: as §1

[4] = as above; settings: mouse, in vivo, ip; Table 1, spasmolytic effect, white mice, intraperitoneal; read-out: Therapeutical index LD50/ED50
Procedure: as §1

[5] = tested on: gastric acid secretion; experiment: inhibition of gastric acid secretion, Shay's method; type: in vivo, Wistar rats; settings: 5 hours; remark: listed apart in the source
[6] = tested on: Shay ulcer; experiment: antiulcer activity, Shay ulcer; type: in vivo, rats; settings: related to the controls averages
Procedure: (§2) The antiulcer activity of 5,6-dimethoxyindazole-3-carboxylic acid-benzylhydrazide was determined on rats.
**Shay ulcer (Shay, H., Komarov, S.A., Fels, S.S., Meranze, D.,
Gruenstein, M., Siplet, H.: Gastroenterology 5, 45 /1945/)

[7] = antidepressant activity, inhibition of tetrabenazine ptosis; type: in vivo, mice; settings: mouse, in vivo; Table 4, antidepressant activity, mice, oral; read-out: Therapeutical index
Procedure: (§3) The antidepressant activity was examined on mice, after oral administration. Tetrabenazine was administered to the animals in a dosage provoking maximum ptosis, and the inhibiting activity of the tested compounds was measured.

[8] = tested on: tetrabenazine ptosis; experiment: as above; type: in vivo, mice; settings: for ED50: Mus musculus, mice, oral, tetrabenazine ptosis
Procedure: as §3

[9] = toxicity on mice p.o. (Table 2); settings: mouse, in vivo, po
[10] = toxicity LD50 listed with the antidepressant activity (Table 4); settings: mouse, in vivo
[11] = tested on: Reserpine-ulcer; experiment: antiulcer activity, Reserpine-ulcer; type: in vivo, rats; settings: related to the controls averages
Procedure: as §2

[12] = white mice, intraperitoneal, 48 hours observation

With CCN(CC)CCOC(=O)C(c1ccccc1)c1ccccc1.Cl [Adiphenine, 2-diethylaminoethyl-diphenylacetate hydrochloride, reference compound] as the molecule, how does the “Percentage inhibition of free HCl” value ([1]; 100 mg./kg. intraperitoneal) read?
Its value is 0%.

What about the “Percentage inhibition of gastric juice” value ([1]; 100 mg./kg. intraperitoneal) of the same molecule?
Its value is 36%.

And the “Percentage inhibition of total acidity” value ([1]; 100 mg./kg. intraperitoneal)?
Its value is 0%.

Which results are given for COc1cc2[nH]nc(C(=O)NNC(C)C)c2cc1OC [Compound 7]?
Percentage inhibition of free HCl ([1]; 100 mg./kg. intraperitoneal): 85%; Percentage inhibition of gastric juice ([1]; 100 mg./kg. intraperitoneal): 80%; Percentage inhibition of total acidity ([1]; 100 mg./kg. intraperitoneal): 67%; LD50 at 48 h [2, 12]: 720 mg/kg; ED50 [3]: 36 mg/kg; selectivity ratio [4]: 20

What does the source list for COc1cc2[nH]nc(C(=O)NNC3CCCCCC3)c2cc1OC [Compound 28, 5,6-dimethoxyindazole-3-carboxylic acid-cycloheptylhydrazide]?
Percentage inhibition of free HCl ([1]; 50 mg./kg. intraperitoneal): 47%; Percentage inhibition of free HCl ([1]; 100 mg./kg. intraperitoneal): 63%; Percentage inhibition of gastric juice ([1]; 100 mg./kg. intraperitoneal): 47%; Percentage inhibition of total acidity ([1]; 100 mg./kg. intraperitoneal): 36%; LD50 at 48 h [2, 12]: 1200 mg/kg; ED50 [3]: 280 mg/kg; selectivity ratio [4]: 4.3; Percentage inhibition of gastric juice ([5]; 50 mg./kg. intraperitoneal): 46%; Percentage inhibition of total acidity ([5]; 50 mg./kg. intraperitoneal): 38%

Which results are given for COc1cc2[nH]nc(C(=O)NNCc3ccccc3)c2cc1OC [Compound 30, 5,6-dimethoxyindazole-3-carboxylic acid-benzylhydrazide]?
Percentage inhibition according to the occurrence of ulcer ([6]; 100 mg./kg.): 12%; Percentage inhibition according to the ulcer index ([6]; 100 mg./kg.): 33%; Percentage inhibition according to ulcer diameters 2-5 mm. ([6]; 100 mg./kg.): 42%; Percentage inhibition according to ulcer diameters 5-10 mm. ([6]; 100 mg./kg.): 71%; Percentage inhibition according to ulcer diameters <2 mm. ([6]; 100 mg./kg.): 0%; Percentage inhibition according to ulcer diameters >10 mm. ([6]; 100 mg./kg.): 62%; Percentage inhibition according to the occurrence of ulcer ([6]; 200 mg./kg.): 22%; Percentage inhibition according to the ulcer index ([6]; 200 mg./kg.): 53%; Percentage inhibition according to ulcer diameters 2-5 mm. ([6]; 200 mg./kg.): 85%; Percentage inhibition according to ulcer diameters 5-10 mm. ([6]; 200 mg./kg.): 67%; Percentage inhibition according to ulcer diameters <2 mm. ([6]; 200 mg./kg.): 86%; Percentage inhibition according to ulcer diameters >10 mm. ([6]; 200 mg./kg.): 100%; selectivity ratio [7]: 14.3; ED50 [8]: 140 mg/kg; Percentage inhibition of free HCl ([1]; 25 mg./kg. i.p.): 33%; Percentage inhibition of total acidity ([1]; 25 mg./kg. i.p.): 20%; Percentage inhibition of free HCl ([1]; 100 mg./kg. intraperitoneal): 74%; Percentage inhibition of gastric juice ([1]; 100 mg./kg. intraperitoneal): 48%; Percentage inhibition of total acidity ([1]; 100 mg./kg. intraperitoneal): 56%; LD50 [9]: 2000 mg/kg; LD50 ([10]; Table 4): 2000 mg/kg; Percentage inhibition according to the occurrence of ulcer ([11]; 10 mg./kg.): 0%; Percentage inhibition according to the ulcer index ([11]; 10 mg./kg.): 14%; Percentage inhibition according to ulcer diameters 2-5 mm. ([11]; 10 mg./kg.): 14%; Percentage inhibition according to ulcer diameters 5-10 mm. ([11]; 10 mg./kg.): 0%; Percentage inhibition according to ulcer diameters <2 mm. ([11]; 10 mg./kg.): 22%; Percentage inhibition according to ulcer diameters >10 mm. ([11]; 10 mg./kg.): 0%; Percentage inhibition according to the occurrence of ulcer ([11]; 25 mg./kg.): 70%; Percentage inhibition according to the ulcer index ([11]; 25 mg./kg.): 81%; Percentage inhibition according to ulcer diameters 2-5 mm. ([11]; 25 mg./kg.): 100%; Percentage inhibition according to ulcer diameters 5-10 mm. ([11]; 25 mg./kg.): 100%; Percentage inhibition according to ulcer diameters <2 mm. ([11]; 25 mg./kg.): 93%; Percentage inhibition according to ulcer diameters >10 mm. ([11]; 25 mg./kg.): 100%; Percentage inhibition according to the occurrence of ulcer ([11]; 50 mg./kg.): 90%; Percentage inhibition according to the ulcer index ([11]; 50 mg./kg.): 97%; Percentage inhibition according to ulcer diameters 2-5 mm. ([11]; 50 mg./kg.): 100%; Percentage inhibition according to ulcer diameters 5-10 mm. ([11]; 50 mg./kg.): 100%; Percentage inhibition according to ulcer diameters <2 mm. ([11]; 50 mg./kg.): 98%; Percentage inhibition according to ulcer diameters >10 mm. ([11]; 50 mg./kg.): 100%; Percentage inhibition of gastric juice ([5]; 25 mg./kg. i.p.): 13%; Percentage inhibition of free HCl ([5]; 50 mg./kg. p.o.): 50%; Percentage inhibition of gastric juice ([5]; 50 mg./kg. p.o.): 36%; Percentage inhibition of total acidity ([5]; 50 mg./kg. p.o.): 39%; Percentage inhibition of free HCl ([5]; 100 mg./kg. p.o.): 76%; Percentage inhibition of gastric juice ([5]; 100 mg./kg. p.o.): 48%; Percentage inhibition of total acidity ([5]; 100 mg./kg. p.o.): 63%; Percentage inhibition of free HCl ([5]; 200 mg./kg. i.p.): 72%; Percentage inhibition of gastric juice ([5]; 200 mg./kg. i.p.): 63%; Percentage inhibition of total acidity ([5]; 200 mg./kg. i.p.): 64%

Which selectivity ratio [7] does the source give for COc1cc2[nH]nc(C(=O)NNCc3ccccc3O)c2cc1OC [Compound 32, 5,6-dimethoxyindazole-3-carboxylic acid-2'-hydroxybenzylhydrazide] here?
The selectivity ratio was 136.

What about the ED50 [8] of the same molecule?
The ED50 was 22 mg/kg.

And the therapeutical width ([8]; compared with amitryptiline)?
Its therapeutical width is “significantly exceeds that of the well known agent, amitryptiline”.

What about the LD50 [10] of the same molecule?
Its LD50 is > 3000 mg/kg.

What about the LD50 at 48 h [2] of the same molecule?
The LD50 at 48 h was > 3000 mg/kg.

What about the ED50 [3] of the same molecule?
Its ED50 is 25 mg/kg.

What about the selectivity ratio [4] of the same molecule?
Its selectivity ratio is 120.

For COc1cc2[nH]nc(C(=O)NNC(C)c3ccc([N+](=O)[O-])cc3)c2cc1OC (centres unmarked) [Compound 35, 5,6-dimethoxyindazole-3-carboxylic acid-1'-(4"-nitrophenyl)-ethylhydrazide], which selectivity ratio [7] is on record?
Its selectivity ratio is 17.9.

What about the ED50 [8] of the same molecule?
Its ED50 is 280 mg/kg.

What about the LD50 [10] of the same molecule?
The LD50 was > 5000 mg/kg.

What about the LD50 at 48 h [2] of the same molecule?
Its LD50 at 48 h is 5000 mg/kg.

What about the ED50 [3] of the same molecule?
The ED50 was 2.5 mg/kg.

What about the selectivity ratio [4] of the same molecule?
The selectivity ratio was 2000.

Which LD50 at 48 h [2, 12] does the source give for COc1ccc(CC(C)NNC(=O)c2n[nH]c3cc(OC)c(OC)cc23)cc1OC (centres unmarked) [Compound 37, 5,6-dimethoxyindazole-3-carboxylic acid-2'-(3'-/3",4"-dimethoxyphenyl/)-propylhydrazide] here?
The LD50 at 48 h was 2700 mg/kg.

What about the ED50 [3] of the same molecule?
The ED50 was 8.7 mg/kg.

What about the selectivity ratio [4] of the same molecule?
The selectivity ratio was 310.

Which “Percentage inhibition of free HCl” value ([5]; 500 mg./kg. intraperitoneal) does the source give for CCCN(CCC)C(=O)C(CCC(=O)O)NC(=O)c1ccccc1 (centres unmarked) [Xylamide, reference compound] here?
Its value is 89%.

What about the “Percentage inhibition of gastric juice” value ([5]; 500 mg./kg. intraperitoneal) of the same molecule?
The value was 81%.

And the “Percentage inhibition of total acidity” value ([5]; 500 mg./kg. intraperitoneal)?
Its value is 80%.

What does the source list for CN(C)CCC=C1c2ccccc2CCc2ccccc21 [amitryptiline, 5-(3-dimethylamino-propylidene)-10,11-dihydro-5H-dibenzo(a,d)cycloheptan hydrochloride, reference compound]?
selectivity ratio [7]: 17.3; ED50 [8]: 13 mg/kg; LD50 ([10]; Table 4): 225 mg/kg

For COc1ccc(Cc2nccc3cc(OC)c(OC)cc23)cc1OC [papaverine, reference compound], which LD50 at 48 h [2, 12] is on record?
Its LD50 at 48 h is 132 mg/kg.

What about the ED50 [3] of the same molecule?
The ED50 was 46 mg/kg.

And the selectivity ratio [4]?
The selectivity ratio was 2.9.
